According to patent US20010044437A1, “Methods for reducing uric acid levels” (priority 2000, published 2001):
Several values for one entry are separate records, joined by “and”; a condition that tells them apart may be missing. Equal entries are not always repeated.

Columns and labels:
[1] = test system: serum uric acid; test: Serum uric acid during 28-day once-daily oral dosing, placebo-controlled study in 48 subjects (Example 34); format: in vivo, human
Procedure: In another study, 48 subjects were divided into four groups, A, B, C and D, and administered the noted amount of the compound of Example 3. Each group was composed of 12 subjects of whom 9 received the compound and 3 received placebo. The non-placebo members of group A received 50 mg of compound, administered orally once a day for 28 days as a single 50 mg tablet. The non-placebo members of group B received 200 mg of compound administered orally once a day for 28 days as a single 200 mg tablet. The non-placebo members of group C received 500 mg of compound administered orally once a day for 28 days as two 50 mg tablets and two 200 mg tablets. The non-placebo members of group D received 800 mg of compound administered orally once a day for 28 days as four 200 mg tablets. The 3 placebo members of each group, received an amount of placebo, as a tablet, equivalent to the amount of test compound—50 mg placebo for group A, 200 mg placebo for group B, 500 mg placebo for group C and 800 mg placebo for group D. Each subject received a single dose of either compound or placebo for 28 days. The subjects were confined at the clinical site beginning the day before dose administration until 72 hours after the final dose administration on Day 28 and returned for an outpatient visit on Day 35.
Uric acid levels were measured prior to beginning the study (screening), on the day immediately prior to commencement of the study (day-1), and then as noted in the table. Hours indicates the time since the last dose was administered. For example, Day 7, 0 hour indicates the time the serum uric acid level at the time the dose was administered and Day 7, 2 hour indicates the uric acid level two hours after the adminstration that day. Further, the Day 30, 60 hour level is the serum uric acid level measured 60 hours (on Day 30) after the last dose was administered on Day 28. The uric acid levels are presented in mg/dL as a mean of all subjects in each group.

[2] = test system: serum uric acid; test: Serum uric acid after a single dose (tablet or suspension) in healthy human subjects (Example 33); format: in vivo; settings: individual subjects
Procedure: Thirty six healthy human subjects are administered either […] or a suspension containing the noted amount of the compound of Example 3 after fasting for at least 8 hours. subjects are administered 200 mg of compound; twelve subjects are administered 400 mg of compound; and twelve subjects are administered 600 mg of compound. Blood was collected before subjects are given the compound (Day −1) and the day following administration (Day 2). Serum uric levels may be measured using standard automated procedures on a uricase peroxidase method. Serum uric acid levels are […] in mg/dL.

`O=C(O)Cn1cc(Cc2nc3c(F)c(F)cc(F)c3s2)c2ccccc21` [Example 3, 3-(4,5,7-Trifluorobenzothiazol-2-yl)methyl-indole-N-acetic Acid] was tested, and the “Uric Acid Level (mean of all subjects in each group)” value (from here on “Uric Acid Level”) ([1]; group C 500 mg orally once a day, Day 1 16 Hour) was 2.36 mg/dL, the “Uric Acid Level” value ([1]; group C 500 mg orally once a day, Day 1 24 Hour) was 2.74 mg/dL and the “Uric Acid Level” value ([1]; group C 500 mg orally once a day, Day 3) was 2.21 mg/dL. For the same compound, the “Uric Acid Level” value ([1]; group C 500 mg orally once a day, Day 7 0 Hour) was 2.17 mg/dL, the “Uric Acid Level” value ([1]; group C 500 mg orally once a day, Day 7 0.5 Hour) was 2.21 mg/dL and the “Uric Acid Level” value ([1]; group C 500 mg orally once a day, Day 7 1 Hour) was 2.16 mg/dL. For the same compound, the “Uric Acid Level” value ([1]; group C 500 mg orally once a day, Day 7 2 Hour) was 2.04 mg/dL, the “Uric Acid Level” value ([1]; group C 500 mg orally once a day, Day 7 3 Hour) was 1.90 mg/dL and the “Uric Acid Level” value ([1]; group C 500 mg orally once a day, Day 7 4 Hour) was 1.88 mg/dL. For the same compound, the “Uric Acid Level” value ([1]; group C 500 mg orally once a day, Day 7 6 Hour) was 2.19 mg/dL, the “Uric Acid Level” value ([1]; group C 500 mg orally once a day, Day 7 8 Hour) was 2.10 mg/dL and the “Uric Acid Level” value ([1]; group C 500 mg orally once a day, Day 7 10 Hour) was 2.08 mg/dL. For the same compound, the “Uric Acid Level” value ([1]; group C 500 mg orally once a day, Day 7 12 Hour) was 1.92 mg/dL, the “Uric Acid Level” value ([1]; group C 500 mg orally once a day, Day 7 16 Hour) was 1.74 mg/dL and the “Uric Acid Level” value ([1]; group C 500 mg orally once a day, Day 7 24 Hour) was 2.23 mg/dL. The “Uric Acid Level” value ([1]; group C 500 mg orally once a day, Day-1 (before dosing)) was 5.10 mg/dL, the “Uric Acid Level” value ([1]; group C 500 mg orally once a day, Screening (before dosing)) was 5.28 mg/dL and the “Uric Acid Level” value ([1]; group D 800 mg orally once a day, Day 1 0 Hour) was 5.64 mg/dL. The “Uric Acid Level” value ([1]; group D 800 mg orally once a day, Day 1 0.5 Hour) was 5.57 mg/dL, the “Uric Acid Level” value ([1]; group D 800 mg orally once a day, Day 1 1 Hour) was 5.12 mg/dL and the “Uric Acid Level” value ([1]; group D 800 mg orally once a day, Day 1 2 Hour) was 4.46 mg/dL. The “Uric Acid Level” value ([1]; group D 800 mg orally once a day, Day 1 3 Hour) was 3.97 mg/dL, the “Uric Acid Level” value ([1]; group D 800 mg orally once a day, Day 1 4 Hour) was 3.66 mg/dL and the “Uric Acid Level” value ([1]; group D 800 mg orally once a day, Day 1 6 Hour) was 3.37 mg/dL. The “Uric Acid Level” value ([1]; group D 800 mg orally once a day, Day 1 8 Hour) was 2.81 mg/dL, the “Uric Acid Level” value ([1]; group D 800 mg orally once a day, Day 1 10 Hour) was 2.49 mg/dL and the “Uric Acid Level” value ([1]; group D 800 mg orally once a day, Day 1 12 Hour) was 2.42 mg/dL. The “Uric Acid Level” value ([1]; group D 800 mg orally once a day, Day 1 16 Hour) was 2.13 mg/dL, the “Uric Acid Level” value ([1]; group D 800 mg orally once a day, Day 1 24 Hour) was 2.64 mg/dL and the “Uric Acid Level” value ([1]; group D 800 mg orally once a day, Day 3) was 2.19 mg/dL. The “Uric Acid Level” value ([1]; group D 800 mg orally once a day, Day 7 0 Hour) was 2.18 mg/dL, the “Uric Acid Level” value ([1]; group D 800 mg orally once a day, Day 7 0.5 Hour) was 2.10 mg/dL and the “Uric Acid Level” value ([1]; group D 800 mg orally once a day, Day 7 1 Hour) was 2.07 mg/dL. The “Uric Acid Level” value ([1]; group D 800 mg orally once a day, Day 7 2 Hour) was 1.98 mg/dL, the “Uric Acid Level” value ([1]; group D 800 mg orally once a day, Day 7 3 Hour) was 1.90 mg/dL and the “Uric Acid Level” value ([1]; group D 800 mg orally once a day, Day 7 4 Hour) was 1.90 mg/dL. For the same compound, the “Uric Acid Level” value ([1]; group D 800 mg orally once a day, Day 7 6 Hour) was 2.23 mg/dL, the “Uric Acid Level” value ([1]; group D 800 mg orally once a day, Day 7 8 Hour) was 2.21 mg/dL and the “Uric Acid Level” value ([1]; group D 800 mg orally once a day, Day 7 10 Hour) was 2.20 mg/dL. For the same compound, the “Uric Acid Level” value ([1]; group D 800 mg orally once a day, Day 7 12 Hour) was 2.10 mg/dL, the “Uric Acid Level” value ([1]; group D 800 mg orally once a day, Day 7 16 Hour) was 1.78 mg/dL and the “Uric Acid Level” value ([1]; group D 800 mg orally once a day, Day 7 24 Hour) was 2.26 mg/dL. The “Uric Acid Level” value ([1]; group D 800 mg orally once a day, Day-1 (before dosing)) was 5.54 mg/dL, the “Uric Acid Level” value ([1]; group D 800 mg orally once a day, Screening (before dosing)) was 5.68 mg/dL and the “% Reduction (Suspension)” value ([2]; 200 mg suspension, Day 2 vs Day-1) was 36% (3×) and 27% and 25% and −51% and 23% (2×) and 35% and 0% and 20% and 11%. For the same compound, the “Uric Acid Day-1 Suspension” value ([2]; 200 mg suspension, before administration (baseline)) was 5.0 mg/dL (2×) and 6.0 mg/dL and 5.3 mg/dL (2×) and 4.3 mg/dL and 5.2 mg/dL and 5.5 mg/dL and 4.7 mg/dL and 3.3 mg/dL and 6.3 mg/dL and 4.5 mg/dL, the “Uric Acid Day 2 (Suspension)” value ([2]; 200 mg suspension, day following administration) was 3.2 mg/dL and 4.4 mg/dL and 4.0 mg/dL (3×) and 6.5 mg/dL and 3.6 mg/dL (2×) and 5.3 mg/dL and 2.1 mg/dL and 5.6 mg/dL and 2.9 mg/dL and the “% reduction (Tablet)” value ([2]; 200 mg tablet, Day 2 vs Day-1) was 28% and 27% and 26% and −3% and 16% (2×) and 39% (2×) and −2% and 32% and 41% and −16%. The “Uric Acid Day-1 Tablet” value ([2]; 200 mg tablet, before administration (baseline)) was 5.0 mg/dL and 6.3 mg/dL and 5.3 mg/dL and 5.8 mg/dL and 4.9 mg/dL (3×) and 6.2 mg/dL and 5.2 mg/dL and 5.7 mg/dL and 3.7 mg/dL and 5.1 mg/dL, the “Uric Acid Day 2 (Tablet)” value ([2]; 200 mg tablet, day following administration) was 3.6 mg/dL and 4.6 mg/dL and 3.9 mg/dL (2×) and 6.0 mg/dL and 4.1 mg/dL (2×) and 3.8 mg/dL and 5.3 mg/dL and 2.2 mg/dL and 5.7 mg/dL and 3.1 mg/dL and the “% reduction” value ([2]; 400 mg, Day 2 vs Day-1) was 47% and 5% and 67% and 9% and 49% and 43% and 2% and 36% and 45% and 51% and −13% and 24%. For the same compound, the “Uric acid Day-1” value ([2]; 400 mg, before administration (baseline)) was 4.5 mg/dL and 4.3 mg/dL and 6.6 mg/dL and 5.3 mg/dL and 3.7 mg/dL and 5.6 mg/dL and 6.0 mg/dL and 4.7 mg/dL (2×) and 7.7 mg/dL and 6.2 mg/dL and 4.6 mg/dL, the “Uric acid Day 2” value ([2]; 400 mg, day following administration) was 2.4 mg/dL and 4.1 mg/dL and 2.2 mg/dL and 4.8 mg/dL and 1.9 mg/dL and 3.2 mg/dL and 5.9 mg/dL and 3.0 mg/dL and 4.2 mg/dL and 2.3 mg/dL and 7.0 mg/dL and 3.5 mg/dL and the “% reduction” value ([2]; 600 mg, Day 2 vs Day-1) was −6% and −44% and 45% and 55% and 42% and 2% and 57% and 47% and 37% and 58% and 50%. The “Uric acid Day-1” value ([2]; 600 mg, before administration (baseline)) was 4.7 mg/dL and 4.3 mg/dL and 5.5 mg/dL and 4.4 mg/dL (2×) and 5.9 mg/dL and 4.6 mg/dL and 3.5 mg/dL and 3.4 mg/dL and 3.0 mg/dL and 3.9 mg/dL and the “Uric acid Day 2” value ([2]; 600 mg, day following administration) was 5.0 mg/dL and 33 mg/dL and 6.2 mg/dL and 3.0 mg/dL and 2.0 mg/dL and 3.4 mg/dL and 4.5 mg/dL and 1.5 mg/dL and 1.8 mg/dL and 1.9 mg/dL and 1.7 mg/dL and 2.2 mg/dL.
